Test results: ChEMBL document CHEMBL5303304, “EUbOPEN Chemogenomics Library - IncuCyte” (2023)

Tests used:
Assay type in all cases: toxicity, cell-based
Fibroblast = assay: Incucyte cell viability with human fibroblast; details: 10 µM, compound concentration 10 uM
HEK-293T = assay: Incucyte cell viability with HEK293T; details: human, 10 µM, compound concentration 10 uM
U2OS = assay: Incucyte cell viability with U2OS; details: human, 10 µM, compound concentration 10 uM
Further: unitless GR value; below 1 slowed growth and below 0 cell loss.

| Structure (SMILES) | Growth Rate (Fibroblast; 0 h, replicate number 2) | Growth Rate (Fibroblast; 6 h, replicate number 1) | Growth Rate (Fibroblast; 6 h, replicate number 2) | Growth Rate (Fibroblast; 12 h, replicate number 2) | Growth Rate (Fibroblast; 18 h, replicate number 2) | Growth Rate (Fibroblast; 24 h, replicate number 2) | Growth Rate (HEK-293T; 0 h, replicate number 1) | Growth Rate (HEK-293T; 0 h, replicate number 2) | Growth Rate (U2OS; 24 h, replicate number 1) | Growth Rate (Fibroblast; 0 h, replicate number 1) | Growth Rate (Fibroblast; 18 h, replicate number 1) | Growth Rate (HEK-293T; 6 h, replicate number 1) | Growth Rate (HEK-293T; 18 h, replicate number 1) | Growth Rate (HEK-293T; 24 h, replicate number 1) | Growth Rate (U2OS; 0 h, replicate number 1) | Growth Rate (U2OS; 6 h, replicate number 1) | Growth Rate (U2OS; 6 h, replicate number 2) | Growth Rate (U2OS; 12 h, replicate number 1) | Growth Rate (U2OS; 12 h, replicate number 2) | Growth Rate (U2OS; 18 h, replicate number 1) | other results |
| --- | --- | --- | --- | --- | --- | --- | --- | --- | --- | --- | --- | --- | --- | --- | --- | --- | --- | --- | --- | --- | --- |
| CCCn1cc(-c2cc(C3C(=O)N(CC)c4ccc(C(F)(F)F)cc4N(c4ccccc4)C3=O)cc(OC)c2O)cn1 (stereo not drawn) | 0.51 | 0.92 | -0.56 | 0.46 | 0.74 | 0.85 | 0.67 | 0.59 | 0.91 | – | – | – | – | – | – | – | – | – | – | – | – |
| COc1cc(-c2cn(C)c(=O)c3cnccc23)cc(OC)c1CN(C)C | – | 0.2 | -0.34 | 0.15 | 0.6 | 0.85 | 0.56 | – | 0.97 | 0.17 | 0.56 | 0.78 | 0.85 | 0.92 | 0.83 | 0.87 | 0.61 | 0.86 | 0.85 | – | Growth Rate (Fibroblast; 12 h, replicate number 1): 0.48; Growth Rate (Fibroblast; 24 h, replicate number 1): 0.58; Growth Rate (HEK-293T; 6 h, replicate number 2): 0.89; Growth Rate (HEK-293T; 18 h, replicate number 2): 0.89 |
| CC(C)(O)CNC(=O)N1C(=O)N(c2cccc(C(F)(F)F)c2)C2=C(C(=O)CC2)[C@@H]1c1ccc(C#N)cc1 | – | 0.57 | – | – | 0.94 | – | 0.26 | – | 0.76 | – | – | – | – | – | 0.14 | 0.14 | 0.9 | 0.58 | – | 0.65 | Growth Rate (HEK-293T; 12 h, replicate number 2): 0.97 |
| CC(C)(O)CNC(=O)N1C(=O)N(c2cccc(C(F)(F)F)c2)C2=C(C(=O)CC2)[C@H]1c1ccc(C#N)cc1 | 0.22 | – | – | – | 0.82 | 0.97 | -0.47 | – | 0.86 | – | – | – | 0.94 | 0.94 | 0.26 | 0.67 | – | 0.56 | 0.96 | 0.85 | Growth Rate (HEK-293T; 12 h, replicate number 2): 0.98; Growth Rate (HEK-293T; 18 h, replicate number 2): 1 |
| Cc1cc2c(cc(C(=O)N[C@H](CO)c3ccc(S(=O)(=O)CC(=O)O)cc3)n2C)c(Cl)c1Cl | – | 0.15 | – | 0.77 | 0.68 | – | 0.87 | – | 0.95 | – | – | 0.99 | – | 0.99 | – | 0.61 | 0.7 | – | 0.94 | 0.92 | Growth Rate (U2OS; 18 h, replicate number 2): 0.79; Growth Rate (U2OS; 24 h, replicate number 2): 1 |
| CNC(=O)COc1cc2cc(Nc3nc(N4C[C@H](C)C[C@H](C)C4)ncc3Cl)ccc2n(C)c1=O | -0.82 | 0.72 | – | – | – | – | 0.06 | 0.7 | 0.95 | – | 0.7 | – | – | – | – | 0.85 | – | – | 0.85 | 0.92 | Growth Rate (Fibroblast; 12 h, replicate number 1): 0.96; Growth Rate (Fibroblast; 24 h, replicate number 1): 0.99; Growth Rate (U2OS; 0 h, replicate number 2): 0.58 |
| Cn1cnc(Cn2ccc3ccc(CNCc4[nH]c5ccccc5c4[C@H]4NC(=O)c5ccc(O)cc54)cc32)c1 | -0.84 | 0.19 | 0.48 | – | 0.8 | – | -0.01 | – | 0.91 | -0.98 | 0.68 | – | – | – | – | 0.88 | 0.3 | 0.98 | 0.81 | – | Growth Rate (U2OS; 0 h, replicate number 2): 0.28; Growth Rate (U2OS; 18 h, replicate number 2): 0.67; Growth Rate (U2OS; 24 h, replicate number 2): 0.9 |
| Cc1cc(OCCC(C)(C)O)cc(C)c1-c1ccc(F)c2c1CC[C@H]2Oc1ccc2c(c1)OC[C@H]2CC(=O)O | – | 0.77 | – | -0.01 | 0.57 | 0.67 | 0.74 | 0.8 | 0.98 | -0.99 | – | 0.79 | 0.98 | – | 0.95 | 0.51 | – | 0.97 | 0.87 | 0.74 | Growth Rate (HEK-293T; 12 h, replicate number 1): 0.91; Growth Rate (HEK-293T; 12 h, replicate number 2): 0.86; Growth Rate (U2OS; 18 h, replicate number 2): 0.88; Growth Rate (U2OS; 24 h, replicate number 2): 0.84 |
